Test results as given in patent publication US20140001056A1 (priority 2011, published 2014).
“And” between values parts separate entries of the source, which are not always exact repeats. Equal values may be shown once. Read-outs that look alike come from different tables or passages of the source.

Tests used:
WT-α-HL pore [1] = molecular target: T1, WT-α-HL pore (Staphylococcus aureus, UniProt P09616); assay type: binding
α-HL monomer = α-HL monomer (Staphylococcus aureus, UniProt P09616)
α-HL heptamer = α-HL heptamer (Staphylococcus aureus, UniProt P09616)
MspA (NNNRRK mutant) = MspA (NNNRRK mutant) (Mycolicibacterium smegmatis, UniProt A0QR29, D117N/D118N/D120N/D145R/D161R/E166K)
WT-Kcv = WT-Kcv (Paramecium bursaria Chlorella virus 1, UniProt Q84568)
WT-α-HL pore [2] = molecular target: T1, WT-α-HL pore; conditions: cited from earlier work

Chain of WT-Kcv (Q84568 whole entry, looked up): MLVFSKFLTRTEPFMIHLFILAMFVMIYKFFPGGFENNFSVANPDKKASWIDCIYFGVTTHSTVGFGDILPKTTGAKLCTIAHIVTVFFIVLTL
Chain of α-HL heptamer (P09616 27-319 limits assumed): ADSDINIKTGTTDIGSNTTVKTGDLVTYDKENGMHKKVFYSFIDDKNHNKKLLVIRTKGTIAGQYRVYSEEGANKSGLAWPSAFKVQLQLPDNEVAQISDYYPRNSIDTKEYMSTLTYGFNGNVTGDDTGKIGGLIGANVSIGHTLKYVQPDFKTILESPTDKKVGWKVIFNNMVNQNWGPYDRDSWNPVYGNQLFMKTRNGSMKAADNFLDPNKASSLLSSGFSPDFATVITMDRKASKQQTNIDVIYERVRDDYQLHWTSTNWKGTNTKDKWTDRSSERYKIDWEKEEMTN
T1 sequence (P09616 27-319 limits assumed): as above
Chain of α-HL monomer (P09616 27-319 limits assumed): as above
Chain of MspA (NNNRRK mutant) (A0QR29 28-211 D117N/D118N/D120N/D145R/D161R/E166K limits assumed): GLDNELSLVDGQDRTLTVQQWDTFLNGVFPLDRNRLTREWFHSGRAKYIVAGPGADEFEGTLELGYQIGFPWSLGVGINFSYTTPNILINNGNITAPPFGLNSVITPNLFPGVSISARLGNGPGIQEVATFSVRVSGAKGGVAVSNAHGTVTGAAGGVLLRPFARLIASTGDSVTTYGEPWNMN

## Fluorinated fos-choline [F6FC]
WT-α-HL pore [1]; pH 7.5
  gα-HL, unitary conductance in the absence of βCD: 650 ± 3 pS and 721 ± 4 pS
α-HL monomer
  Percent release of dye at end point: 0.2% and 0.3%
α-HL heptamer
  Lag time before initiation of release: 2.8 min and 4.3 min
MspA (NNNRRK mutant)
  blockades or gating changes of MspA pores already inserted: did not cause blockades or changes in the gating
  insertion of MspA pores into planar lipid bilayer: No further insertion events occur
WT-Kcv
  blockades or gating changes of Kcv channels already inserted: did not cause blockades or changes in the gating
  insertion of Kcv channels into planar lipid bilayer: No openings are seen
  single-channel IV curve of Kcv: unchanged

## β-cyclodextrin [βCD]
WT-α-HL pore [1]
  Kd: 5.4 mM and 9.6 mM
  gα-HL·βCD, unitary conductance with βCD bound: 257 ± 3 pS and 232 ± 4 pS
  koff: 1.7 ± 0.1 × 10^3 s^−1 and 2.4 ± 0.3 × 10^3 s^−1
  kon: 3.1 ± 0.1 × 10^5 M^−1s^−1 and 2.5 ± 0.4 × 10^5 M^−1s^−1
WT-α-HL pore [2]
  gα-HL·βCD, unitary conductance with βCD bound: 253 ± 4 pS and 240 ± 3 pS
  koff: 2.1 ± 0.2 × 10^3 s^−1 and 1.3 ± 0.1 × 10^3 s^−1
  kon: 2.8 ± 0.2 × 10^5 M^−1s^−1 and 4.0 ± 0.3 × 10^5 M^−1s^−1

## Fluorinated octyl maltoside [F6OM]
α-HL monomer
  Initial rate of release of dye: 4 % min^−1
  Lag time before initiation of release: 4.4 min
α-HL heptamer
  Initial rate of release of dye: 16 % min^−1
  Lag time before initiation of release: 1.8 min

## C6F13C2H4—S-poly[tris(hydroxymethyl)aminomethane] [F6TAC]
α-HL monomer
  Initial rate of release of dye: 6.5 % min^−1
  Lag time before initiation of release: 7.5 min
α-HL heptamer
  Initial rate of release of dye: 16 % min^−1
  Lag time before initiation of release: 4.8 min
